Reference: the supplement of paper PMC10307832

Assays:
Test in all cases: relative viability (nuclei count vs DMSO), 5 days (fraction); higher = more cells survive
H3255 = system: H3255
In short: (§1)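 The day after seeding in 1536-well plates, lung cancer cell lines were treated by pin tool with a single drug, or with a fixed anchor-drug dose together with five library-drug doses (not always all listed) in √10 steps. After 5 days, a combined fix-and-stain solution (final 0.05% Triton X-100, 1% formaldehyde, 1 ug/ml Hoechst) was added. Nuclei counted on 4× images gave relative viability as treated counts over vehicle counts, reported as the median of duplicate plates.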

SK-MES-1 = system: SK-MES-1
In short: as §1

ChaGo-K-1 = system: ChaGo-K-1
In short: as §1

EMC-BAC-2 = system: EMC-BAC-2
In short: as §1

NCI-H1993 = system: NCI-H1993
In short: as §1

NCI-H2087 = system: NCI-H2087
In short: as §1

EPLC-272H = system: EPLC-272H
In short: as §1

NCI-H1944 = system: NCI-H1944
In short: as §1

NCI-H1395 = system: NCI-H1395
In short: as §1

NCI-H650 = system: NCI-H650
In short: as §1

LCLC-103H = system: LCLC-103H
In short: as §1

LCLC-97TM1 = system: LCLC-97TM1
In short: as §1

NCI-H322M = system: NCI-H322M
In short: as §1

NCI-H520 = system: NCI-H520
In short: as §1

NCI-H1793 = system: NCI-H1793
In short: as §1

NCI-H1651 = system: NCI-H1651
In short: as §1

NCI-H1355 = system: NCI-H1355
In short: as §1

HCC-44 = system: HCC-44
In short: as §1

NCI-H1563 = system: NCI-H1563
In short: as §1

HCC-827 = system: HCC-827
In short: as §1

NCI-H23 = system: NCI-H23
In short: as §1

NCI-H2405 = system: NCI-H2405
In short: as §1

UMC-11 = system: UMC-11
In short: as §1

NCI-H2085 = system: NCI-H2085
In short: as §1

In the case of `Clc1ccc(Nc2nnc(Cc3ccncc3)c3ccccc23)cc1` [Vatalanib] + CS(=O)(=O)N1CCN(Cc2cc3nc(-c4cccc5[nH]ncc45)nc(N4CCOCC4)c3s2)CC1 [Pictilisib] (partner 1 µM), the relative viability (H3255; first compound 0.04 µM) is reported as 0.43, the relative viability (H3255; first compound 0.1265 µM) is reported as 0.52 and the relative viability (H3255; first compound 0.4 µM) is reported as 0.311. The relative viability (H3255; first compound 1.265 µM) was 0.384, the relative viability (H3255; first compound 4 µM) was 0.438 and the relative viability (SK-MES-1; first compound 0.04 µM) was 0.408. It also gave a relative viability (SK-MES-1; first compound 0.1265 µM) of 0.351, a relative viability (SK-MES-1; first compound 0.4 µM) of 0.387 and a relative viability (SK-MES-1; first compound 1.265 µM) of 0.338. The relative viability (SK-MES-1; first compound 4 µM) was 0.365, the relative viability (ChaGo-K-1; first compound 0.04 µM) was 0.418 and the relative viability (ChaGo-K-1; first compound 0.1265 µM) was 0.719. For the same molecule, the relative viability (ChaGo-K-1; first compound 1.265 µM) was 0.687, the relative viability (ChaGo-K-1; first compound 4 µM) was 0.787 and the relative viability (EMC-BAC-2; first compound 0.04 µM) was 0.559. For the same molecule, the relative viability (EMC-BAC-2; first compound 0.1265 µM) was 0.556, the relative viability (EMC-BAC-2; first compound 0.4 µM) was 0.572 and the relative viability (EMC-BAC-2; first compound 1.265 µM) was 0.533. The relative viability (EMC-BAC-2; first compound 4 µM) was 0.525, the relative viability (NCI-H1993; first compound 0.04 µM) was 0.782 and the relative viability (NCI-H1993; first compound 0.1265 µM) was 0.898. The relative viability (NCI-H1993; first compound 0.4 µM) was 0.847, the relative viability (NCI-H1993; first compound 1.265 µM) was 0.816 and the relative viability (NCI-H1993; first compound 4 µM) was 0.887. The relative viability (NCI-H2087; first compound 0.04 µM) was 0.871, the relative viability (NCI-H2087; first compound 0.1265 µM) was 0.752 and the relative viability (NCI-H2087; first compound 0.4 µM) was 1.15. It also gave a relative viability (NCI-H2087; first compound 1.265 µM) of 0.826, a relative viability (NCI-H2087; first compound 4 µM) of 0.931 and a relative viability (EPLC-272H; first compound 0.04 µM) of 0.35. For the same molecule, the relative viability (EPLC-272H; first compound 0.1265 µM) was 0.309, the relative viability (EPLC-272H; first compound 0.4 µM) was 0.151 and the relative viability (EPLC-272H; first compound 1.265 µM) was 0.332. The relative viability (EPLC-272H; first compound 4 µM) was 0.344, the relative viability (NCI-H1944; first compound 0.04 µM) was 0.351 and the relative viability (NCI-H1944; first compound 0.1265 µM) was 0.316. It also gave a relative viability (NCI-H1944; first compound 0.4 µM) of 0.37, a relative viability (NCI-H1944; first compound 1.265 µM) of 0.356 and a relative viability (NCI-H1944; first compound 4 µM) of 0.352. The relative viability (NCI-H1395; first compound 0.04 µM) was 0.814, the relative viability (NCI-H1395; first compound 0.1265 µM) was 0.55 and the relative viability (NCI-H1395; first compound 0.4 µM) was 0.525. The relative viability (NCI-H1395; first compound 1.265 µM) was 0.538, the relative viability (NCI-H1395; first compound 4 µM) was 0.616 and the relative viability (NCI-H650; first compound 0.04 µM) was 0.875. It also gave a relative viability (NCI-H650; first compound 0.1265 µM) of 0.914, a relative viability (NCI-H650; first compound 1.265 µM) of 0.868 and a relative viability (NCI-H650; first compound 4 µM) of 0.909. It also gave a relative viability (LCLC-103H; first compound 0.04 µM) of 0.6, a relative viability (LCLC-103H; first compound 0.1265 µM) of 0.606 and a relative viability (LCLC-103H; first compound 0.4 µM) of 0.55. It also gave a relative viability (LCLC-103H; first compound 1.265 µM) of 0.596, a relative viability (LCLC-103H; first compound 4 µM) of 0.714 and a relative viability (LCLC-97TM1; first compound 0.04 µM) of 0.136. It also gave a relative viability (LCLC-97TM1; first compound 0.1265 µM) of 0.243, a relative viability (LCLC-97TM1; first compound 0.4 µM) of 0.187 and a relative viability (LCLC-97TM1; first compound 1.265 µM) of 0.19. For the same molecule, the relative viability (LCLC-97TM1; first compound 4 µM) was 0.195, the relative viability (NCI-H322M; first compound 0.04 µM) was 0.513 and the relative viability (NCI-H322M; first compound 0.1265 µM) was 0.489. For the same molecule, the relative viability (NCI-H322M; first compound 0.4 µM) was 0.555, the relative viability (NCI-H322M; first compound 1.265 µM) was 0.534 and the relative viability (NCI-H322M; first compound 4 µM) was 0.553. The relative viability (NCI-H520; first compound 0.04 µM) was 0.312, the relative viability (NCI-H520; first compound 0.1265 µM) was 0.277 and the relative viability (NCI-H520; first compound 0.4 µM) was 0.34. It also gave a relative viability (NCI-H520; first compound 1.265 µM) of 0.306, a relative viability (NCI-H520; first compound 4 µM) of 0.308 and a relative viability (NCI-H1793; first compound 0.04 µM) of 0.218. For the same molecule, the relative viability (NCI-H1793; first compound 0.1265 µM) was 0.326, the relative viability (NCI-H1793; first compound 0.4 µM) was 0.382 and the relative viability (NCI-H1793; first compound 1.265 µM) was 0.293. The relative viability (NCI-H1793; first compound 4 µM) was 0.347, the relative viability (NCI-H1651; first compound 0.04 µM) was 0.646 and the relative viability (NCI-H1651; first compound 0.1265 µM) was 0.276. It also gave a relative viability (NCI-H1651; first compound 0.4 µM) of 0.642, a relative viability (NCI-H1651; first compound 1.265 µM) of 0.511 and a relative viability (NCI-H1651; first compound 4 µM) of 0.594. The relative viability (NCI-H1355; first compound 0.04 µM) was 0.391, the relative viability (NCI-H1355; first compound 0.1265 µM) was 0.441 and the relative viability (NCI-H1355; first compound 0.4 µM) was 0.53. It also gave a relative viability (NCI-H1355; first compound 1.265 µM) of 0.394, a relative viability (NCI-H1355; first compound 4 µM) of 0.457 and a relative viability (HCC-44; first compound 0.04 µM) of 0.704. It also gave a relative viability (HCC-44; first compound 0.1265 µM) of 0.684, a relative viability (HCC-44; first compound 0.4 µM) of 0.63 and a relative viability (HCC-44; first compound 1.265 µM) of 0.644. The relative viability (HCC-44; first compound 4 µM) was 0.613, the relative viability (NCI-H1563; first compound 0.04 µM) was 0.634 and the relative viability (NCI-H1563; first compound 0.1265 µM) was 0.677. For the same molecule, the relative viability (NCI-H1563; first compound 0.4 µM) was 0.685, the relative viability (NCI-H1563; first compound 1.265 µM) was 0.673 and the relative viability (NCI-H1563; first compound 4 µM) was 0.652. For the same molecule, the relative viability (HCC-827; first compound 0.04 µM) was 0.974, the relative viability (HCC-827; first compound 0.1265 µM) was 0.872 and the relative viability (HCC-827; first compound 0.4 µM) was 0.925. For the same molecule, the relative viability (HCC-827; first compound 1.265 µM) was 1.06, the relative viability (HCC-827; first compound 4 µM) was 0.863 and the relative viability (NCI-H23; first compound 0.04 µM) was 0.45. It also gave a relative viability (NCI-H23; first compound 0.1265 µM) of 0.412, a relative viability (NCI-H23; first compound 0.4 µM) of 0.511 and a relative viability (NCI-H23; first compound 1.265 µM) of 0.436. For the same molecule, the relative viability (NCI-H23; first compound 4 µM) was 0.552, the relative viability (NCI-H2405; first compound 0.04 µM) was 0.506 and the relative viability (NCI-H2405; first compound 0.1265 µM) was 0.429. It also gave a relative viability (NCI-H2405; first compound 1.265 µM) of 0.352, a relative viability (NCI-H2405; first compound 4 µM) of 0.493 and a relative viability (UMC-11; first compound 0.04 µM) of 0.814. The relative viability (UMC-11; first compound 0.1265 µM) was 0.746, the relative viability (UMC-11; first compound 0.4 µM) was 0.875 and the relative viability (UMC-11; first compound 1.265 µM) was 0.79. For the same molecule, the relative viability (UMC-11; first compound 4 µM) was 0.794, the relative viability (NCI-H2085; first compound 0.04 µM) was 0.424 and the relative viability (NCI-H2085; first compound 0.1265 µM) was 0.524. For the same molecule, the relative viability (NCI-H2085; first compound 0.4 µM) was 0.44, the relative viability (NCI-H2085; first compound 1.265 µM) was 0.469 and the relative viability (NCI-H2085; first compound 4 µM) was 0.438.
